Where only a bound is given, the exact number is not on record here.

This note sets out measurements from patent publication US6251882A, “Alkyl ketones as potent anti-cancer agents” (Parker Hughes Institute, priority 1999, dated 2001).

The subject of one test is Nalm-6 (B-lineage ALL). Description: MTT cytotoxicity assay, Nalm-6. The class given is cell-based. The following applies: Homo sapiens, 24-36 hours at 37° C., 0.1 to 250 μM. The protocol: (§1) Cytotoxicity of various compounds against tumor cells was performed using the MTT (3-[4,5-[…]]-2,5-diphenyl tetrazolium bromide) assay (Boehringer Mannheim Corp., Indianapolis, Ind.). Unless otherwise specified, all cell lines were obtained from the American Type Culture Collection (ATCC). Briefly, exponentially growing cells were seeded into a 96-well plate at a density of 2.5×10^4 cells/well and incubated for 36 hours at 37° C. prior to drug exposure. On the day of treatment, culture medium was carefully aspirated from the wells and replaced with fresh medium containing the indicated compound at concentrations ranging from 0.1 to 250 μM. Triplicate wells were used for each treatment.
(§2) Human leukemic cell lines (NALM-6, MOLT-3) glioblastoma cells (U373) and human breast tumor cell lines (BT20 and MDA-MB-231) were obtained from the American Type Culture Collection and maintained as a continuous cell line in Dulbecco's modified Eagles's medium supplemented with 10% fetal bovine serum and antibiotics.
(§3) The cells were incubated with the various compounds for 24-36 hours at 37° C. in a humidified 5% CO2 atmosphere. To each well, 10 μl of MTT (0.5 mg/ml final concentration) was added and the plates were incubated at 37° C. for 4 hours to allow MTT to form formazan crystals by reacting with metabolically active cells. The formazan crystals were solubilized overnight at 37° C. in a solution containing 10% SDS in 0.01 M HCl. The absorbence of each well was measured in a microplate reader (Labsystems) at 540 nm and a reference wavelength of […]. To translate the OD540 values into the number of live cells in each well, the OD540 values were compared to those on standard OD540 --versus--cell number curves generated for each cell line. The percent survival was calculated using the formula: [formula]
(§4) The IC50 values were calculated by non-linear regression analysis and are shown below in Tables 1-6.

A further test deals with Molt-3 (T-lineage ALL). In words: MTT cytotoxicity assay, Molt-3. As to conditions: Homo sapiens, MOLT-3, MTT, 24-36 hours at 37° C., 0.1 to 250 μM. The class given is cell-based, human. The protocol: as §1, §2, §3, §4
A further test has as its system BT-20 (breast cancer). In words: MTT cytotoxicity assay, BT-20. The format is cell-based. The following applies: Homo sapiens, 24-36 hours at 37° C., 0.1 to 250 μM. The protocol: as §1, §2, §3, §4
A further test concerns PC-3 (prostate cancer). Description: MTT cytotoxicity assay, PC-3. The class given is cell-based. The following applies: 24-36 hours at 37° C., 0.1 to 250 μM. The method, then:
as §1, §3, §4

A further test relates to U-373 (glioblastoma). In words: MTT cytotoxicity assay, U-373. The format is cell-based. As to conditions: Homo sapiens, U373 MG, 24-36 hours at 37° C., 0.1 to 250 μM. The method, then:
as §1, §2, §3, §4

Take `CCCCCCCCCCCCSC[C@H](NC(C)=O)C(=O)CSc1c(F)c(F)c(F)c(F)c1F` [HI-399]: the IC50 with Nalm-6 (B-lineage ALL) is 91.2 µM; in the test with Molt-3 (T-lineage ALL) it was 40.8 µM; in the test with BT-20 (breast cancer), above 100 µM; with PC-3 (prostate cancer) it was 91.6 µM; in the test on U-373 (glioblastoma), above 100 µM.

`CCCCCCCCCCCCSC[C@H](NC(C)=O)C(=O)CBr` [HI-488, N-Ac-S-dodecyl-cysteine bromomethyl ketone]: the IC50 in the test on Nalm-6 (B-lineage ALL) is 1.3 µM; in the test with Molt-3 (T-lineage ALL), 3.19 µM; with BT-20 (breast cancer), 33.8 µM; in the test with PC-3 (prostate cancer), 39.6 µM; in the test on U-373 (glioblastoma) it was 22.5 µM.

For the molecule `CCCCCCCCCCCCSC[C@H](NC(=O)OCC)C(=O)CCl` [HI-319], the IC50 is 77.6 µM in the test with Nalm-6 (B-lineage ALL); 84.2 µM in the test on Molt-3 (T-lineage ALL); above 100 µM in the test with BT-20 (breast cancer); above 100 µM with PC-3 (prostate cancer); above 100 µM in the test on U-373 (glioblastoma).

Regarding `CCCCCCCCCCCCSC[C@H](NC(C)=O)C(=O)CSC(c1ccccc1)(c1ccccc1)c1ccccc1` [HI-365], the IC50 in the test on Nalm-6 (B-lineage ALL) was 93.1 µM; in the test on Molt-3 (T-lineage ALL), 97.3 µM; in the test with BT-20 (breast cancer) it was above 100 µM; with PC-3 (prostate cancer) it was above 100 µM; in the test with U-373 (glioblastoma), above 100 µM.

Turning to `CCCCCCCCCCCCSC[C@H](NC(C)=O)C(=O)CSc1ccc2ccccc2c1` [HI-302, N-Ac-S-dodecyl-Cys-CH2 -S-2-naphthyl], the IC50 in the test on Nalm-6 (B-lineage ALL), in the test on Molt-3 (T-lineage ALL), with BT-20 (breast cancer), in the test on PC-3 (prostate cancer) and with U-373 (glioblastoma) was above 100 µM each time.

`CC(=O)N[C@@H](CSC(=O)OCc1ccccc1)C(=O)CCl` [HI-389, N-Ac-S-benzyloxycarbonyl-cysteine chloromethyl ketone]: the IC50 with Nalm-6 (B-lineage ALL) was found to be 1.2 µM; in the test with Molt-3 (T-lineage ALL), 3.5 µM; in the test with BT-20 (breast cancer), 49.3 µM; in the test on PC-3 (prostate cancer) it was 23.4 µM; with U-373 (glioblastoma), 54.4 µM.
